# Measurements published in ChEMBL document CHEMBL5055672, “Design, Synthesis, Biological Evaluation, and Computational Studies of Novel Fluorinated Candidates as PI3K Inhibitors: Targeting Fluorophilic Binding Sites” (J Med Chem, 2021).
# Legend:
# CCRF-CEM = experiment: Cytotoxicity against human CCRF-CEM cells assessed as growth inhibition at 10 uM after 48 hrs by sulforhodamine B assay; type: functional; settings: read-out: GI
# K562 = experiment: Cytotoxicity against human K562 cells assessed as growth inhibition at 10 uM after 48 hrs by sulforhodamine B assay; type: functional; settings: read-out: GI
# HOP-62 = experiment: Cytotoxicity against human HOP-62 cells assessed as growth inhibition at 10 uM after 48 hrs by sulforhodamine B assay; type: functional; settings: read-out: GI
# HOP-92 = experiment: Cytotoxicity against human HOP-92 cells assessed as growth inhibition at 10 uM after 48 hrs by sulforhodamine B assay; type: functional; settings: read-out: GI
# HCT-116 = experiment: Cytotoxicity against human HCT-116 cells assessed as growth inhibition at 10 uM after 48 hrs by sulforhodamine B assay; type: functional; settings: read-out: GI
# HCT-15 = experiment: Cytotoxicity against human HCT-15 cells assessed as growth inhibition at 10 uM after 48 hrs by sulforhodamine B assay; type: functional; settings: read-out: GI
# SW-620 = experiment: Cytotoxicity against human SW-620 cells assessed as growth inhibition at 10 uM after 48 hrs by sulforhodamine B assay; type: functional; settings: read-out: GI
# SF-295 = experiment: Cytotoxicity against human SF-295 cells assessed as growth inhibition at 10 uM after 48 hrs by sulforhodamine B assay; type: functional; settings: read-out: GI
# SNB-19 = experiment: Cytotoxicity against human SNB-19 cells assessed as growth inhibition at 10 uM after 48 hrs by sulforhodamine B assay; type: functional; settings: read-out: GI
# SNB-75 = experiment: Cytotoxicity against human SNB-75 cells assessed as growth inhibition at 10 uM after 48 hrs by sulforhodamine B assay; type: functional; settings: read-out: GI
# U-251 = experiment: Cytotoxicity against human U-251 cells assessed as growth inhibition at 10 uM after 48 hrs by sulforhodamine B assay; type: functional; settings: read-out: GI
# LOX IMVI = experiment: Cytotoxicity against human LOX IMVI cells assessed as growth inhibition at 10 uM after 48 hrs by sulforhodamine B assay; type: functional; settings: read-out: GI
# UACC-62 = experiment: Cytotoxicity against human UACC-62 cells assessed as growth inhibition at 10 uM after 48 hrs by sulforhodamine B assay; type: functional; settings: read-out: GI
# OVCAR-8 = experiment: Cytotoxicity against human OVCAR8 cells assessed as growth inhibition at 10 uM after 48 hrs by sulforhodamine B assay; type: functional; settings: read-out: GI
# ACHN = experiment: Cytotoxicity against human ACHN cells assessed as growth inhibition at 10 uM after 48 hrs by sulforhodamine B assay; type: functional; settings: read-out: GI
# CAKI-1 = experiment: Cytotoxicity against human CAKI-1 cells assessed as growth inhibition at 10 uM after 48 hrs by sulforhodamine B assay; type: functional; settings: read-out: GI
# MCF7 [1] = experiment: Cytotoxicity against human MCF7 cells assessed as growth inhibition at 10 uM after 48 hrs by sulforhodamine B assay; type: functional; settings: read-out: GI
# MDA-MB-231 = experiment: Cytotoxicity against human MDA-MB-231 cells assessed as growth inhibition at 10 uM after 48 hrs by sulforhodamine B assay; type: functional; settings: read-out: GI
# [2] = Cytotoxicity against human Hs 578T cells assessed as growth inhibition at 10 uM after 48 hrs by sulforhodamine B assay; type: functional; settings: read-out: GI
# T47D = experiment: Cytotoxicity against human T47D cells assessed as growth inhibition at 10 uM after 48 hrs by sulforhodamine B assay; type: functional; settings: read-out: GI
# MDA-MB-468 = experiment: Cytotoxicity against human MDA-MB-468 cells assessed as growth inhibition at 10 uM after 48 hrs by sulforhodamine B assay; type: functional; settings: read-out: GI
# [3] = molecular target: Phosphatidylinositol 4,5-bisphosphate 3-kinase catalytic subunit alpha isoform (Homo sapiens, UniProt P42336); experiment: Inhibition of PI3Kalpha (unknown origin) using PIP2 as substrate preincubated for 10 mins followed by substrate addition and measured after 1 hr by ELISA
# Phosphatidylinositol 4,5-bisphosphate 3-kinase catalytic subunit alpha isoform, sequence (P42336 whole entry, canonical isoform): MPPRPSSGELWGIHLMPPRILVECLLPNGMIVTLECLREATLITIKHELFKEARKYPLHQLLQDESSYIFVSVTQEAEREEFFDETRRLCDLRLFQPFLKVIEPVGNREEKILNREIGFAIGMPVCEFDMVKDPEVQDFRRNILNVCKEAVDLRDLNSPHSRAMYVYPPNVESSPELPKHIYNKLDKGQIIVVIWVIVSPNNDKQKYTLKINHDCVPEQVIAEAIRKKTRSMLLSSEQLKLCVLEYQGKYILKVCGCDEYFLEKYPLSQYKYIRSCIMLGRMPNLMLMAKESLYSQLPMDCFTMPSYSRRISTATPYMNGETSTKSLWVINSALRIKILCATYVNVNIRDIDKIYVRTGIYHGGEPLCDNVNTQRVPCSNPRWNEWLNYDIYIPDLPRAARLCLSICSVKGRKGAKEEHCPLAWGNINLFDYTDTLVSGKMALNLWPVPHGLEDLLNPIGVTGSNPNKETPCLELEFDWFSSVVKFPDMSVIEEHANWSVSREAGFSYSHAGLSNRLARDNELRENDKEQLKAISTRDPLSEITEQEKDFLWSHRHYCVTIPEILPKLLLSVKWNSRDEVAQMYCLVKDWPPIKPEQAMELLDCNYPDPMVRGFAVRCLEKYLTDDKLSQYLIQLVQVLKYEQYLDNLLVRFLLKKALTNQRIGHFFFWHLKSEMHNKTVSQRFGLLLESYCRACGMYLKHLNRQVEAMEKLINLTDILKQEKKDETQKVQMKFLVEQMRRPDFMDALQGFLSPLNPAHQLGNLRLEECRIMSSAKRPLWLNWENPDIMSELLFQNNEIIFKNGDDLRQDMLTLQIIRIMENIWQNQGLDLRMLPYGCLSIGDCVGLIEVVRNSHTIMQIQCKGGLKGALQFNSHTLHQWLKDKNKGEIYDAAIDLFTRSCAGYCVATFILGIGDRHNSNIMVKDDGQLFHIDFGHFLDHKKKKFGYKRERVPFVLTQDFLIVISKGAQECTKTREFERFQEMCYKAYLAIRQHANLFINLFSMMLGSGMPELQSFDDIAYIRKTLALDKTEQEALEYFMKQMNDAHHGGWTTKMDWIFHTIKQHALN
# MCF7 [4] = experiment: Induction of cell cycle arrest in human MCF7 cells assessed as accumulation of cells at G phase at IC50 concentration by Propidium iodide staining based flow cytometric analysis (reference value: 1.76%); type: functional
# MCF7 [5] = experiment: Induction of cell cycle arrest in human MCF7 cells assessed as accumulation of cells at S phase at IC50 concentration by Propidium iodide staining based flow cytometric analysis (reference value: 27.61%); type: functional
# MCF7 [6] = experiment: Induction of apoptosis in human MCF7 cells assessed as early apoptotic cells at 13.30 uM after 48 hrs by annexin V-FITC/propidium iodide staining based flow cytometric analysis (reference value: 0.36%); type: functional; settings: dose 13.3 µM
# MCF7 [7] = experiment: Induction of apoptosis in human MCF7 cells assessed as late apoptotic cells at 13.30 uM after 48 hrs by annexin V-FITC/propidium iodide staining based flow cytometric analysis (reference value: 0.14%); type: functional; settings: dose 13.3 µM
# MCF7 [8] = experiment: Induction of apoptosis in human MCF7 cells assessed as necrotic cells at 13.30 uM after 48 hrs by annexin V-FITC/propidium iodide staining based flow cytometric analysis (reference value: 1.26%); type: functional; settings: dose 13.3 µM
# [9] = molecular target: T1, Phosphatidylinositol 4,5-bisphosphate 3-kinase catalytic subunit delta isoform (Homo sapiens, UniProt O00329); experiment: Inhibition of PI3Kdelta (unknown origin) using PIP2 as substrate preincubated for 10 mins followed by substrate addition and measured after 1 hr by ELISA
# T1 sequence (O00329 whole entry): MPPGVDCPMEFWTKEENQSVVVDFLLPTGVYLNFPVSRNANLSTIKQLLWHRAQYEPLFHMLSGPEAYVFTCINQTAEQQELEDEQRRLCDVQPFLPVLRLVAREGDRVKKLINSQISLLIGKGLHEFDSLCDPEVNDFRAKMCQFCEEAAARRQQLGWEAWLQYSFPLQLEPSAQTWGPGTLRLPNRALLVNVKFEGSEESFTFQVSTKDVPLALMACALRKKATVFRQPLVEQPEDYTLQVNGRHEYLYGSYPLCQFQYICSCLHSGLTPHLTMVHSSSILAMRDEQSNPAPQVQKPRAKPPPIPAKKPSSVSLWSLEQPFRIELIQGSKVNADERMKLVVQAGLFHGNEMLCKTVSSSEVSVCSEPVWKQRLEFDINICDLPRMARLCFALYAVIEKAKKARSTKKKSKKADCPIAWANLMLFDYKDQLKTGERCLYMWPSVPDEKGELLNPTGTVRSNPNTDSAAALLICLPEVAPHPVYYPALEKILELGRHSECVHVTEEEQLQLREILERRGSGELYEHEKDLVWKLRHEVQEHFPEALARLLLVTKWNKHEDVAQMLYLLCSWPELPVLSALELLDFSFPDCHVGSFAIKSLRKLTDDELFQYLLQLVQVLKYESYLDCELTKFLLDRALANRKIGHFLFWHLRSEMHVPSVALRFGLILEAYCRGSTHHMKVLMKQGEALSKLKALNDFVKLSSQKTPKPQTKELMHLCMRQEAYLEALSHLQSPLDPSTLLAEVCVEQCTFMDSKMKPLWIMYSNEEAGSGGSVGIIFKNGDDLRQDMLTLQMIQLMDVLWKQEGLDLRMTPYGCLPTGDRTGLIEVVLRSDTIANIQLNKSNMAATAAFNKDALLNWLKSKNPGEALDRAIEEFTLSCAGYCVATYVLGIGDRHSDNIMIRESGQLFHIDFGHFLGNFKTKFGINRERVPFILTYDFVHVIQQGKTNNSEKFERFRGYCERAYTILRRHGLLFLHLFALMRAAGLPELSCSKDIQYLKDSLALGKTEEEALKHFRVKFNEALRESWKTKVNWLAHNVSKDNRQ
smiles,measurement,setting,value
COC(=O)/C=C1\S/C(=N\N=C\c2ccc(OCC(F)(F)F)cc2)N(c2ccccc2)C1=O,inhibition of growth at 10 µM,CCRF-CEM,13.5%
same,inhibition of growth at 10 µM,K562,25.7%
same,inhibition of growth at 10 µM,HOP-62,31.5%
same,inhibition of growth at 10 µM,HOP-92,20.1%
same,inhibition of growth at 10 µM,HCT-116,28.8%
same,inhibition of growth at 10 µM,HCT-15,17.3%
same,inhibition of growth at 10 µM,SW-620,12.4%
same,inhibition of growth at 10 µM,SF-295,13.2%
same,inhibition of growth at 10 µM,SNB-19,18.2%
same,inhibition of growth at 10 µM,SNB-75,28.2%
same,inhibition of growth at 10 µM,U-251,23.1%
same,inhibition of growth at 10 µM,LOX IMVI,24.1%
same,inhibition of growth at 10 µM,UACC-62,18.9%
same,inhibition of growth at 10 µM,OVCAR-8,35.5%
same,inhibition of growth at 10 µM,ACHN,24%
same,inhibition of growth at 10 µM,CAKI-1,26.6%
same,inhibition of growth at 10 µM,MCF7 [1],33.2%
same,inhibition of growth at 10 µM,MDA-MB-231,21.5%
same,inhibition of growth at 10 µM,[2],43%
same,inhibition of growth at 10 µM,T47D,14.5%
same,inhibition of growth at 10 µM,MDA-MB-468,47.6%
same,IC50,[3],77.5 µM
same,Activity,MCF7 [4],19.52%
same,Activity,MCF7 [5],36.02%
same,Activity,MCF7 [6],2.71%
same,Activity,MCF7 [7],9.42%
same,Activity,MCF7 [8],7.39%
same,IC50,[9],121 µM
